Common to all, as to assay: microbe, parasite or virus in culture
In experiment [1] the test system is T1, Acinetobacter baumannii ATCC 17978.
T1 construct: ATCC 17978
On the set-up: CLSI broth microdilution MIC; OD600 < 0.05 counted as complete growth inhibition. Particulars: Acinetobacter baumannii, ATCC17978, 18 h; read-out: MIC of ancestor. Here is the method:
(§1) A final concentration of 5 × 10^5 bacterial cells per mL were inoculated into each well containing 60 µL MHB medium. Bacterial cultures were incubated at 37 °C with continuous shaking (Infors shaker, 900 rpm with 3 mm throw) for 18 hours (2 replicates from each). Cell growth was monitored by measuring the optical density (OD600 values, using Biotek Synergy microplate reader). MIC was defined as the antibiotic concentration of complete growth inhibition (i.e., OD600 < 0.05). Relative MIC was calculated as follows:1 relativeMIC=MICevolved/MICancestor This study focused on multiple bacterial strains, as follows. For the FoR and ALE experiments, 2 strains per species were chosen: E. coli ATCC 25922, K. pneumoniae ATCC 10031, A. baumannii ATCC 17978, and P. aeruginosa ATCC BAA-3107 as sensitive (SEN) strains, and E. coli NCTC13846, K. pneumoniae ATCC 700603, A. baumannii ATCC BAA-1605 and P. aeruginosa LESB58 as multi-drug resistant (MDR) strains. Functional metagenomic screens were performed with E. coli ATCC 25922 and K. pneumoniae ATCC 10031 strains. To determine the dose-kill properties of the different antibiotics, an E. coli strain (ATCC 25922) expressing a yellow fluorescent protein (pZS2R, YFP, CHL^R) and a red fluorescent protein (pZS2R, mCherry, CHL^R) was used.

Experiment [2] relates to T2, Escherichia coli ATCC 25922.
T2 construct: ATCC 25922
On the set-up: CLSI broth microdilution MIC; OD600 < 0.05 counted as complete growth inhibition. Particulars: Escherichia coli, ATCC25922, 18 h; read-out: MIC of ancestor. The protocol:
as §1

The subject of experiment [3] is T3, Acinetobacter baumannii ATCC BAA 1605.
T3 construct: ATCC BAA-1605
On the set-up: CLSI broth microdilution MIC; OD600 < 0.05 counted as complete growth inhibition. Particulars: Acinetobacter baumannii, BAA1605, 18 h; read-out: MIC of ancestor. The protocol:
as §1

The test system of experiment [4] is T4, Klebsiella pneumoniae ATCC 10031.
T4 construct: ATCC 10031
Set-up: CLSI broth microdilution MIC; OD600 < 0.05 counted as complete growth inhibition. Particulars: Klebsiella pneumoniae, ATCC10031, 18 h; read-out: MIC of ancestor. Here is the method:
as §1

Experiment [5] has as its system T5, Klebsiella pneumoniae ATCC 700603.
T5 construct: ATCC 700603
On the set-up: CLSI broth microdilution MIC; OD600 < 0.05 counted as complete growth inhibition. Particulars: Klebsiella pneumoniae, ATCC700603, 18 h; read-out: MIC of ancestor. Here is the method: as §1

Experiment [6] concerns T6, Escherichia coli NCTC 13846.
T6 construct: NCTC 13846
On the set-up: CLSI broth microdilution MIC; OD600 < 0.05 counted as complete growth inhibition. Particulars: Escherichia coli, NCTC13846, 18 h; read-out: MIC of ancestor. The protocol:
as §1

Experiment [7] deals with T7, E. coli NCTC13846 (MDR).
T7 construct: NCTC 13846
Set-up: Serial broth microdilution MIC (CLSI), OD600 below 0.05, 384-well plates, MHB medium. Particulars: Escherichia coli, NCTC13846, 18 h; ancestor strain before evolution. The protocol: as §1

The test system of experiment [8] is E. coli ATCC 25922. On the set-up: Serial broth microdilution MIC (CLSI), OD600 below 0.05, 384-well plates, MHB medium. Particulars: Escherichia coli, ATCC25922, 18 h; ancestor strain before evolution. The protocol:
as §1

Experiment [9] relates to T8, K. pneumoniae ATCC 10031.
T8 construct: ATCC 10031
Set-up: Serial broth microdilution MIC (CLSI), OD600 below 0.05, 384-well plates, MHB medium. Particulars: Klebsiella pneumoniae, ATCC10031, 18 h; ancestor strain before evolution. Here is the method:
as §1

Experiment [10] relates to T9, A. baumannii ATCC 17978.
T9 construct: ATCC 17978
Set-up: Serial broth microdilution MIC (CLSI), OD600 below 0.05, 384-well plates, MHB medium. Particulars: Acinetobacter baumannii, ATCC17978, 18 h; ancestor strain before evolution. Here is the method:
as §1

The test system of experiment [11] is T10, K. pneumoniae ATCC 700603 (MDR).
T10 construct: ATCC 700603
Set-up: Serial broth microdilution MIC (CLSI), OD600 below 0.05, 384-well plates, MHB medium. Particulars: Klebsiella pneumoniae, ATCC700603, 18 h; ancestor strain before evolution. Here is the method: as §1

Molecules are shown by their SMILES.

The record followed here is article PMC11845477, “Exploring the principles behind antibiotics with limited resistance” (Nature Communications, 2025).

As to `CC(C)c1ccc(Cn2ccc3c4c(N)nc(NC5CC5)nc4ccc32)cc1` [SCH, SCH79797], the MIC in experiment [1], in experiment [2], in [3] and in experiment [4] was 4 µg/mL each time.
Turning to `C[C@@H](O)[C@H]1C(=O)N2C(C(=O)O)=C(S[C@H]3CC[S@@+]([O-])C3)S[C@H]12` [SUO, sulopenem], the MIC in experiment [1] was 1 µg/mL; in experiment [2], 0.0312 µg/mL; in experiment [5] it was 0.5 µg/mL; in experiment [4] it was 0.0312 µg/mL; in experiment [6] it was 0.0312 µg/mL.
Turning to `C[C@@H](O)[C@H]1C(=O)N2C(C(=O)O)=C(S[C@H]3CC[S@@+]([O-])C3)S[C@H]12` [sulopenem], the MIC in [7] is 0.0312 µg/mL; in experiment [8], 0.0312 µg/mL; in experiment [9], 0.0312 µg/mL; in [10], 1 µg/mL; in experiment [11], 0.5 µg/mL.
